Source: patent publication US20120035169A1, “AEROSOL FORMULATION FOR THE INHALATION OF BETA-AGONISTS” (BOEHRINGER INGELHEIM INTERNATIONAL GMBH, priority 2004, published 2012)
Structures can show the parent of a compound that is named as a salt.

With `Cc1cc(CC(C)(C)NCC(O)c2cc(O)cc3c2OCC(=O)N3)ccc1F` (centres unmarked) (as salt: hydrochloride) the melting point was 278 to 280 °C.
Compound `CC(C)(Cc1ccc(F)cc1F)NCC(O)c1cc(O)cc2c1OCC(=O)N2` (centres unmarked) (as salt: hydrochloride) has a melting point of 279 to 280 °C.
With `Cc1cc(F)ccc1CC(C)(C)NCC(O)c1cc(O)cc2c1OCC(=O)N2` (centres unmarked) (as salt: hydrochloride) the melting point was 278 to 280 °C.
`CC(C)(Cc1ccc(OCCCC(=O)O)cc1)NCC(O)c1cc(O)cc2c1OCC(=O)N2` (centres unmarked) (as salt: salt) [Example 16, Acid addition salt of 4-(4-{2-[2-hydroxy-2-(6-hydroxy-3-oxo-3,4-dihydro-2H-benzo[1,4]oxazin-8-yl)-ethylamino]-2-methyl-propyl}-phenoxy)-butyric acid] showed a melting point of 201 to 204 °C.
`Cc1cc(C)cc(CC(C)(C)NCC(O)c2cc(O)cc3c2OCC(=O)N3)c1` (centres unmarked) (as salt: hydrochloride) gave a melting point of 235 to 238 °C.
